Laboratory results reported in paper PMC10442441, “Characterization of two O-methyltransferases involved in the biosynthesis of O-methylated catechins in tea plant” (Nature Communications, 2023).
Like-named read-outs stand apart in the source and are kept apart here.

Target: T1, CsFAOMT1 (Camellia sinensis, UniProt A0A7J7GXF2)
T1 construct: gene HYC85_015345
Details: 1.0 mM Mg2+, pH 7.4, 40 °C, exact value in supplement

T1 sequence (A0A7J7GXF2 entry or part of it): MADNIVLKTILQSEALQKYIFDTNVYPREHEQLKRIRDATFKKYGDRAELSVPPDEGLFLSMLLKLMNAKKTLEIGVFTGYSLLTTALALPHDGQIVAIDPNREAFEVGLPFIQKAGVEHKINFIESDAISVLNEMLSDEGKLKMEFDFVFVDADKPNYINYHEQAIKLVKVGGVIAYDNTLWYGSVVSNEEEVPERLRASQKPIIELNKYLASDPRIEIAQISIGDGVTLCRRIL

Km (saturating SAM) [µM] | Km (1 mM SAM) [µM] | SMILES
< 4 | – | O=c1c(O)c(-c2cc(O)c(O)c(O)c2)oc2cc(O)cc(O)c12 [myricetin]
< 4 | – | COC(=O)c1cc(O)c(O)c(O)c1 [methyl gallate]
– | > 2500 | O=c1c(O[C@@H]2O[C@H](CO)[C@@H](O)[C@H](O)[C@H]2O)c(-c2ccc(O)c(O)c2)oc2cc(O)cc(O)c12 [isoquercitrin]
